The target of one assay is CDK4/CyclinD1 (Homo sapiens, UniProt P11802). The experiment in a line: CDK4/cyclinD1 kinase assay (Nanosyn, Caliper microfluidic kinase detection). The assay is classed as biochemical. The note with it: Table 2; 12-point dose-response, ATP at Km (200 μM), 10 hr; read-out: CDK4/CycD1 IC50. The protocol:
The assays were performed using microfluidic kinase detection technology (Caliper Assay Platform). The compounds were tested in 12-point dose-response format in singlicate at Km for ATP. Phosphoacceptor substrate peptide concentration used was 1 μM for all assays and Staurosporine was used as the reference compound for all assays. Specifics of each assay are as described below:
CDK4/CyclinD1: Enzyme concentration: 1 nM; ATP concentration: 200 μM; Incubation time: 10 hr.

A further assay concerns HS68 cells. The experiment in a line: G1 arrest (cellular G1 and S-phase) assay, propidium iodide flow cytometry. The format is cell-based, human. As to conditions: Homo sapiens, Hs68, HS68 cells. The protocol: HS68 cells (human skin fibroblast cell line (Rb-positive)) were stained with propidium iodide staining solution and run on Dako Cyan Flow Cytometer. The fraction of cells in G0-G1 DNA cell cycle versus the fraction in S-phase DNA cell cycle was determined using FlowJo 7.2.2 analysis.
The compounds listed in Table 1 were tested for their ability to arrest HS68 cells at the G1 phase of the cell cycle.

By EC50 is commonly meant the concentration needed to bring the measured effect to its halfway point.

CDK4/CyclinD1, sequence (P11802 whole entry, species assumed): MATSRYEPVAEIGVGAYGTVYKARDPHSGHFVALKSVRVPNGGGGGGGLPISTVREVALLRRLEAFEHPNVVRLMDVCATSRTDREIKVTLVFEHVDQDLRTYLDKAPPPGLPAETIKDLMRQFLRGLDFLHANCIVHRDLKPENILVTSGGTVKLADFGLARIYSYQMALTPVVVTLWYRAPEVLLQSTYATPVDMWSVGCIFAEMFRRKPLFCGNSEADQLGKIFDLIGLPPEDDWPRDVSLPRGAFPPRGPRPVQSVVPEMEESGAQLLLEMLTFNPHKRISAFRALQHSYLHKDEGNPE
CDK4/CyclinD1, sequence (P24385 whole entry partner, species assumed): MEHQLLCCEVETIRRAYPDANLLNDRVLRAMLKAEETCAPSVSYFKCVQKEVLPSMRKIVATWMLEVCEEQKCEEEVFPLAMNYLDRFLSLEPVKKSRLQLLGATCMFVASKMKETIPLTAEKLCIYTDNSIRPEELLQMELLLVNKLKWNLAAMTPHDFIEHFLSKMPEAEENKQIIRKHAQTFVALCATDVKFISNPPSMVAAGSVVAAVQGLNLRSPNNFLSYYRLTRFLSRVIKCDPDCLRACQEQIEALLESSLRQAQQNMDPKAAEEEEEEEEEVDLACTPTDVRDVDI

For the compound `CC1CN(c2ccc(Nc3ncc4cc5n(c4n3)C3(CCCC3)CNC5=O)nc2)CCN1CC1CC1` (stereo not shown) [NNN], the IC50 at CDK4/CyclinD1 amounted to 1.4 nM. The compound also showed an EC50 in the assay on HS68 cells of 210 nM.

Regarding `CC(C)N1CCN(c2ccc(Nc3ncc4cc5n(c4n3)C3(CCCC3)CNC5=O)nc2)CC1` [III], the IC50 at CDK4/CyclinD1 was found to be 6 nM. This compound also showed an EC50 with HS68 cells of 250 nM.

In the assay with HS68 cells, `CCC(C)[C@@H]1CNC(=O)c2cc3cnc(Nc4ccc(N5CCNCC5)cn4)nc3n21` (stereo partly shown) [VVV] yielded an EC50 of 300 nM.

Turning to `CCN(CC)C1CCN(c2ccc(Nc3ncc4cc5n(c4n3)C3(CCCC3)CNC5=O)nc2)CC1` [LLL], the IC50 on CDK4/CyclinD1 was 3.2 nM. Besides, the EC50 in the assay on HS68 cells was 250 nM.

As for `CCC(C)CN1[C@H](C)CN(c2ccc(Nc3ncc4cc5n(c4n3)C3(CCCC3)CNC5=O)nc2)C[C@@H]1C` (stereo partly shown) [JJJ], the IC50 on CDK4/CyclinD1 worked out at 3.2 nM. The same compound gave an EC50 in the assay with HS68 cells of 240 nM.

With `CC(C)N1CCN(c2ccc(Nc3ncc4cc5n(c4n3)C3(CCCC3)CNC5=O)nn2)CC1` [RRR], the IC50 on CDK4/CyclinD1 was 2.6 nM. In addition, the EC50 in the assay on HS68 cells was 400 nM.

Consider `C[C@@H]1CN(c2ccc(Nc3ncc4cc5n(c4n3)C3(CCCCC3)CNC5=O)nc2)C[C@H](C)N1C` [DD], for which the IC50 on CDK4/CyclinD1 was found to be 1.9 nM. This compound also gave an EC50 in the assay on HS68 cells of 100 nM.

In the case of `O=C1NCC2(CCCCC2)n2c1cc1cnc(Nc3ccc(N4CCN(CC5CC5)CC4)cn3)nc12` [HH], the IC50 on CDK4/CyclinD1 was determined as 1.7 nM. In the assay with HS68 cells, this compound showed a half-maximal effective concentration (EC50) of 110 nM.

`CC1CN(c2ccc(Nc3ncc4cc5n(c4n3)C3(CCCC3)CNC5=O)nc2)CCN1CCC(C)(C)C` (stereo not shown) [PPP] registered an EC50 with HS68 cells of 275 nM.

On to `CCC(C)CN1CCN(c2ccc(Nc3ncc4cc5n(c4n3)C3(CCCC3)CNC5=O)nc2)CC1` (stereo not shown) [FFF], for which, at CDK4/CyclinD1, the IC50 came out at 4.7 nM.

For the compound `O=C1NCC2(CCCC2)n2c1cc1cnc(Nc3ccc(N4CCOCC4)nn3)nc12` [SSS], the IC50 on CDK4/CyclinD1 was 2 nM. For the same compound, in the assay with HS68 cells, a half-maximal response (EC50) required 1500 nM.

With `C[C@H]1CN(c2ccc(Nc3ncc4cc5n(c4n3)C3(CCCCC3)CNC5=O)nc2)CCN1CCC(C)(C)C` [M], it took 100 nM to reach a half-maximal effect with HS68 cells (EC50).

Regarding `C[C@H](O)CN1CCN(c2ccc(Nc3ncc4cc5n(c4n3)C3(CCCC3)CNC5=O)nc2)C[C@H]1C` [XX], the IC50 at CDK4/CyclinD1 is 1.3 nM. In the assay on HS68 cells, this compound gave an EC50 of 225 nM.

As to `CC(C)N1CCN(c2ccc(Nc3ncc4cc5n(c4n3)C3(CCCC3)CNC5=O)nc2)CC1C` (stereo not shown) [GGG], the IC50 at CDK4/CyclinD1 amounted to 13.7 nM. The compound also showed an EC50 in the assay on HS68 cells of 350 nM.

Turning to `CC(C)C[C@@H]1CNC(=O)c2cc3cnc(Nc4ccc(N5CCNCC5)cn4)nc3n21` [WWW], the IC50 on CDK4/CyclinD1 worked out at 18.5 nM. Besides, the EC50 in the assay with HS68 cells came to 300 nM.

For `CC(C)[C@H]1CNC(=O)c2cc3cnc(Nc4ccc(N5CCNCC5)cn4)nc3n21` [UUU], in the assay on HS68 cells, the EC50 stood at 300 nM.

Turning to `O=C1NCC2(CCCC2)n2c1cc1cnc(Nc3ccc(N4CCNCC4)cn3)nc12` [QQQ], at CDK4/CyclinD1, the IC50 was 10.5 nM. Further, the EC50 with HS68 cells amounted to 500 nM.

Consider `C[C@@H]1CN(c2ccc(Nc3ncc4cc5n(c4n3)C3(CCCC3)CNC5=O)nc2)C[C@H](C)N1` [DDD], for which the IC50 on CDK4/CyclinD1 was found to be 9.5 nM. In the assay on HS68 cells, the EC50 amounted to 350 nM.

Regarding `CC(C)(C)CCN1CCN(c2ccc(Nc3ncc4cc5n(c4n3)C3(CCCC3)CNC5=O)nc2)CC1` [KKK], the IC50 on CDK4/CyclinD1 is 1.3 nM. In the assay on HS68 cells, this compound returned an EC50 of 190 nM.

Turning to `CC1CN(c2ccc(Nc3ncc4cc5n(c4n3)C3(CCCCC3)CNC5=O)nc2)CCN1CCC(C)(C)C` (stereo not shown) [G], the IC50 at CDK4/CyclinD1 was found to be 1.5 nM. The compound further registered an EC50 in the assay on HS68 cells of 175 nM.

For `O=C1NCC2(CCCCC2)n2c1cc1cnc(Nc3ccc(C(=O)N4CCNCC4)cn3)nc12` [Y], on CDK4/CyclinD1, the IC50 amounted to 2.5 nM. For the same compound, it took 350 nM to reach a half-maximal effect in the assay with HS68 cells (EC50).

For the compound `C[C@@H](O)CN1CCN(c2ccc(Nc3ncc4cc5n(c4n3)C3(CCCC3)CNC5=O)nc2)C[C@@H]1C` [VV], the IC50 at CDK4/CyclinD1 came to 3.3 nM. Also, a half-maximal effect in the assay with HS68 cells (EC50) was put at 200 nM.

For the compound `CC(C)N1CCN(c2ccc(Nc3ncc4cc5n(c4n3)C3(CCCCC3)CNC5=O)nn2)CC1` [TT], at CDK4/CyclinD1, the IC50 came out at 0.8 nM. Moreover, the EC50 in the assay on HS68 cells turned out to be 75 nM.

For `C[C@@H]1CN(c2ccc(Nc3ncc4cc5n(c4n3)C3(CCCCC3)CNC5=O)nc2)CCN1C` [NN], at CDK4/CyclinD1, the IC50 came out at 3.7 nM. Besides, the EC50 in the assay with HS68 cells stood at 110 nM.

For the origin of these results see patent publication US12285431B2, “Treatment of Rb-negative tumors using topoisomerase inhibitors in combination with cyclin dependent kinase 4/6 inhibitors” (G1 Therapeutics, Inc., priority 2014, dated 2025).
